From US20100267638A1, “EXOSITE-DIRECTED THROMBIN INHIBITORS” (CLEVELAND STATE UNIVERSITY, priority 2003, published 2010)
No end group written: not given here.

What was measured:
prothrombinase = target: T1, prothrombinase (Homo sapiens, UniProt P00734); assay: Assay measuring thrombin formation (prothrombinase inhibition by peptides, DAPA fluorescence); format: biochemical
T1 construct: purchased Haematologic Technologies Inc. (Essex Junction, Vt.)

[1] = Clotting time as a function of peptide concentration (FIG. 12); conditions: peptide 500 nM
Source text: FIG. 12 is a graph illustrating clotting time as a function of concentration of various peptides of interest as follows: DYDYQ (SEQ ID NO. 11) (filled squares); DYDYQ (1, 2) (or as designated in shorthand form, D5Q1,2) (SEQ ID NO. 9) (filled triangles); DYDYQ-1 (SEQ ID NO. 7) (filled inverted triangles); and DYDYQ-2 (SEQ ID NO. 8) (filled diamonds).

DYDYQ [DYDYQ, Asp-Tyr-Asp-Tyr-Gln]
concentration at which complete inhibition of prothrombinase occurred (prothrombinase; FIG. 3A): 40 µM | inhibition of prothrombinase activity with increasing peptide (prothrombinase; FIG. 10A, up to 8000 nM): decrease in the activity of prothrombinase | Ki (prothrombinase; calculated from IC50 of 1.6 μM as in FIG. 2C legend, read-out: Ki for inhibition of prothrombinase): 850 nM | IC50 (prothrombinase; factor Va 4 nM, factor Xa 10 nM, prothrombin 350 nM, PCPS 10 μM, peptide preincubated with factor Va): 1600 nM | clotting time [1]: relatively long clotting times
